In patent US8497299B2, “Compositions including quinonoid derivatives of cannabinoids for therapeutic use” (Yissum Research Development Company of The Hebrew …, priority 2004, dated 2013):
Values joined by “and” are separate entries in the source; they are usually repeats but may differ in a detail not shown here. Identical values can stand only once.

Assays:
[1] = system: Jurkat (human T-cell lymphoma); assay: MTT cell proliferation test, Jurkat cells; assay type: cell-based
Procedure: (§1) Aliquots (200 μL) of suspensions of cancer cells were dispensed into wells of 96-well tissue culture plates at densities of 0.02×10^6 cells/well. Various concentrations of cannabinoic quinones were introduced into the wells, and their efficacy was tested three days after initiation of the cultures, using the 3-(4,5-dimethylthiazol-2-yl)-2,5-diphenyltetrazolium bromide (MTT) assay. The principle of this assay is that cells which survive following exposure to various compounds can reduce MTT to a dark-colored formazan, while dead cells are incapable of doing so. […] In each MTT assay every concentration of the cytotoxic substance was tested in five replicates in microplate wells. Assays with every cell line were carried out in two to three repeated experiments. The inhibitory effect of various compounds was calculated as percentage inhibition in comparison with the values obtained in untreated wells to which vehicle (ethanol 0.5%) was added.

DU-145 (prostate cancer) = assay: MTT cell proliferation test, DU-145 cells; assay type: cell-based, human; settings: for susceptibility of the cell line to inhibition, in words: DU-145, relative to the other cell lines
Procedure: as §1

[2] = system: human cancer cell lines (Raji, Jurkat, SNB-19, MCF-7, DU-145, NCI-H-226, HT-29); assay: MTT cell proliferation test, all cell lines tested; assay type: cell-based; settings: for growth inhibition of human cancer cell lines in vitro, in words: MTT; for concentration at which all cell lines tested were inhibited: all cell lines / cell types tested
Procedure: as §1

SNB-19 (glioblastoma) = assay: MTT cell proliferation test, SNB-19 cells; assay type: cell-based, human; settings: for susceptibility of the cell line to inhibition, in words: SNB-19, relative to the other cell lines
Procedure: as §1

[3] = system: Raji (Burkitt's lymphoma); assay: MTT cell proliferation test, Raji cells; assay type: cell-based, human
Procedure: as §1

[4] = Tolerability in treated nude mice (weight loss, adverse effects); assay type: in vivo; settings: 5 mg/kg
Procedure: (§2) A series of experiments were carried out to determine the capacity of HU-331 to inhibit the growth of human tumor cells in vivo. Nude mice received a subcutaneous (s.c.) injection of HT-29 human colon cancer cells. At various time intervals after the administration of the tumor cells the mice received i.p. or s.c. injections of HU-331 (2) at a dose of 5 mg/kg 3 times per week. This concentration paralleled the concentration of 5 μg/ml used in the in vitro experiments, which killed about 50% of HT-29 cancer cells.

HT-29 colon cancer = assay: Growth of HT-29 colon cancer grafted s.c. in nude mice; assay type: in vivo
Procedure: Tumors were grafted into nude mice by s.c. flank inoculation of 0.2×10^6 HT-29 cells in RPMI 1640 medium without FCS. The animals were assigned randomly to various groups and injected via intraperitoneal (i.p.), intratumor or subcutaneous (s.c.) on day 2 or 14 after cells injection with vehicle (1:1:18 v/v ethanol:Emulphor®:PBS) or 5 mg/kg of HU-331. Tumors were measured with external caliper, and their area was calculated by multiplying the length by the width of the tumor.
as §2
Further, ten nude mice received a s.c. injection of HT-29 and were divided in two groups. Starting from day 2 after tumor injection, one group of mice received the i.p. injections of HU-331.
In another in vivo experiment, two groups of nude mice received an injection of HT-29 cancer cells subcutaneously in their backs. HU-331 (2) was injected subcutaneously at a concentration of 5 μg/ml (FIG. 6). In one group (Group 1), HU-331 was administrated intra-tumorally starting 14 days after the injection of tumor cells. In another group (Group 2), HU-331 was injected subcutaneously in the region where cancer cells had been injected, starting 2 days after the injection of tumor cells. […] In the mice that received HU-331 intra-tumorally starting 14 days after tumor implantation (Group 1), the anti-tumor effect of HU-331 took a longer time to be manifested.

HT-29 (colon cancer) = assay: MTT cell proliferation test, HT-29 cells; assay type: cell-based, human
Procedure: (§3) Raji and Jurkat cells were suspended in RPMI 1640 medium, supplemented with 20% heat-inactivated fetal calf serum (H-I FCS), 2 mM L-glutamine, 100 U/mL penicillin, and 0.01 mg/mL streptomycin at 37° C. in a 5% CO2 humidified atmosphere. Other cell lines were suspended in RPMI 1640 medium, supplemented with 10% H-I FCS, 2 mM L-glutamine, 100 U/mL penicillin, and 0.01 mg/mL streptomycin at 37° C. in a 5% CO2 humidified atmosphere.
(§4) Aliquots (200 μL) of suspensions of cancer cells were dispensed into wells of 96-well tissue culture plates at densities of 0.02×10^6 cells/well. Various concentrations of cannabinoic quinones were introduced into the wells, and their efficacy was tested three days after initiation of the cultures, using the 3-(4,5-dimethylthiazol-2-yl)-2,5-diphenyltetrazolium bromide (MTT) assay. The principle of this assay is that cells which survive following exposure to various compounds can reduce MTT to a dark-colored formazan, while dead cells are incapable of doing so. The assay was performed as described previously [Carmichael, J., et al. (1987) Cancer Res. 47, 936-42; Rubinstein, L. V. et al. (1990) J Natl Cancer Inst. 82, 1113-8; Rubnov, S. et al. (2001) J Nat Prod. 64, 993-6]. In each MTT assay every concentration of the cytotoxic substance was tested in five replicates in microplate wells. Assays with every cell line were carried out in two to three repeated experiments. The inhibitory effect of various compounds was calculated as percentage inhibition in comparison with the values obtained in untreated wells to which vehicle (ethanol 0.5%) was added.
(§5) The ability of cannabinoic quinones to inhibit cancer growth in vitro was verified on the following human cancer cell lines: Raji (Burkitt's lymphoma), Jurkat (human T-cell lymphoma), SNB-19 (glioblastoma), MCF-7 (breast cancer), DU-145 (prostate cancer), NCI-H-226 (lung cancer), and HT-29 (colon cancer) (see FIG. 5A-5E).

MCF-7 (breast cancer) = assay: MTT cell proliferation test, MCF-7 cells; assay type: cell-based, human
Procedure: as §3, §4, §5

Structure (SMILES): CCCCCC1=CC(=O)C([C@@H]2C=C(C)CC[C@H]2C(C)C)=C(O)C1=O [HU-395, 3S,4R-p-benzoquinone-3-hydroxy-2-[p-mentha-1-en-3-yl]-5-pentyl]
- inhibition at 0.2 µg/mL ([1]; Homo sapiens, Jurkat, at 0.2 μg/ml, read-out: inhibition of Jurkat cell growth): ~60%
- inhibition of Jurkat cell proliferation, comparison in words ([1]; MTT): at least to the same extent as HU-331

Structure (SMILES): CCCCCC1=CC(=O)C2=C(OC(C)(C)[C@@H]3CC=C(C)C[C@@H]23)C1=O [HU-336, 6aR,10aR-1-H-dibenzo[b,d]pyran-1,4-(6H)-dione-6aβ,7,10,10aα-tetrahydro-6,6,9-trimethyl-3-pentyl]
- susceptibility of the cell line to inhibition, in words (DU-145 (prostate cancer)): most susceptible
- growth inhibition of human cancer cell lines in vitro, in words [2]: weakest capacity to inhibit the growth of human cancer cell lines in vitro
- concentration at which all cell lines tested were inhibited [2]: over 12.5 μg/ml
- inhibition of growth of all the cells tested ([2]; at 12.5 μg/ml or higher): ≥ 50%
- susceptibility of the cell line to inhibition, in words (SNB-19 (glioblastoma)): most susceptible
- concentration at which growth was inhibited (SNB-19 (glioblastoma); SNB-19 cells, inhibited only at this concentration): 100 µg/mL

Structure (SMILES): CCCCCC1=CC(=O)C2=C(OC(C)(C)c3ccc(C)cc32)C1=O [HU-345, 1-H-dibenzo[b,d]pyran-1,4(6H)-dione-6,6,9-trimethyl-3-pentyl]
- inhibition at 6.25 µg/mL ([3]; Homo sapiens, Raji, read-out: inhibition of Raji cell growth): > 50%
- inhibition of Raji cell growth, comparison in words ([3]; MTT): more effectively than that of the other cell lines tested
- susceptibility of the cell line to inhibition, in words (DU-145 (prostate cancer)): most susceptible
- concentration at which growth was inhibited (DU-145 (prostate cancer); DU-145 prostate cancer cells): 12.5 µg/mL
- concentration at which all cell lines tested were inhibited [2]: 25.0 µg/mL and 12.5 to 25.0 µg/mL
- concentration at which growth was inhibited ([1]; Jurkat cells): 12.5 µg/mL and 12.5 to 25.0 µg/mL
- susceptibility of the cell line to inhibition, in words (SNB-19 (glioblastoma)): most susceptible

Structure (SMILES): C=C(C)[C@@H]1CCC(C)=C[C@H]1C1=C(O)C(=O)C(CCCCC)=CC1=O [HU-331, 3S,4R-p-benzoquinone-3-hydroxy-2-p-mentha-(1,8)-dien-3-yl-5-pentyl]
- weight loss and observable adverse effects [4]: did not cause either weight loss or any observable adverse effects
- tumor size versus controls (HT-29 colon cancer; i.p. 5 mg/kg 3 times per week from day 2, at 35 days after cancer cell injection, p<0.0029): half the size of the tumors in controls
- tumor size versus vehicle-treated control mice (HT-29 colon cancer; i.p. 5 mg/kg 3 times per week from day 2, starting at 25 days after cancer cells injection, p<0.05): significantly smaller
- tumor size versus controls (HT-29 colon cancer; intra-tumoral from day 14 (Group 1), from day 31 onwards, not significant until day 45): smaller than in controls
- tumor size versus control mice (HT-29 colon cancer; intra-tumoral from day 14 (Group 1), starting at day 45 after cell injection, p<0.05): significantly smaller
- tumor size versus control mice (HT-29 colon cancer; s.c. in the region of the graft from day 2 (Group 2), at days 17-25 and until day 59, p<0.05): significantly smaller
- concentration giving 50% inhibition of growth ([3]; Raji lymphoma, MTT, three days): 0.2 µg/mL
- inhibition of Raji cell growth ([3]; at 0.2 μg/ml): about 50%
- inhibition of Raji cell growth ([3]; at 1.56 μg/ml): over 80%
- susceptibility of the cell line to inhibition, in words (HT-29 (colon cancer); HT-29, relative to the other cell lines): most susceptible
- concentration required for 50% inhibition of growth (HT-29 (colon cancer); HT-29 colon cancer, MTT, three days): 3.125 µg/mL
- inhibition of HT-29 cell growth (HT-29 (colon cancer); at 3.125 μg/ml): about 50%
- HT-29 cancer cells killed (HT-29 (colon cancer); at 5 μg/ml in vitro): about 50%
- growth inhibition of human cancer cell lines in vitro, in words [2]: exerted an inhibitory effect on the in vitro growth of all seven human cancer cell lines tested
- concentration giving 50% inhibition of growth ([1]; Jurkat lymphoma, MTT, three days): 0.2 µg/mL
- inhibition of Jurkat cell growth ([1]; at 0.2 μg/ml): about 50%
- inhibition of Jurkat cell growth ([1]; at 1.56 μg/ml): over 80%
- susceptibility of the cell line to inhibition, in words (MCF-7 (breast cancer); MCF-7, relative to the other cell lines): most susceptible
- concentration required for 50% inhibition of growth (MCF-7 (breast cancer); MCF-7 mammary cancer, MTT, three days): 3.125 µg/mL
- inhibition of MCF-7 cell growth (MCF-7 (breast cancer); at 3.125 μg/ml): about 50%

Structure (SMILES): CCCCCC1=CC(=O)C([C@@H]2CC(C)CC[C@H]2C(C)C)=C(O)C1=O (stereo partly drawn) [HU-396, 3S,4R-p-benzoquinone-3-hydroxy-2-[p-menthan-3-yl]-5-pentyl]
- inhibition of Jurkat cell proliferation, comparison in words ([1]; MTT): less effectively than HU-395 and HU-331
- Jurkat cancer cells killed ([1]; at 0.39 μg/ml): about 40%
- Jurkat cancer cells killed ([1]; at 0.78 μg/ml): about 60%
